Entries after “also recorded” stand apart in the source; their conditions may differ.
Columns and labels:
[1] = system: NPC (−/−) mice; experiment: Clinical signs and tremor score in the Niemann-Pick type C mouse model; format: in vivo; settings: for Overall clinical signs: scores PND 56-70
Experimental: Out of the 38 mice to be included in this study, there were 30 NPC (−/−) knock-out (KO) mice, 4 NPC (+/−) heterozygous mice and 4 NPC (+/+) wild-type (WT, Balb/c) mice. NPC1(−/−) mice have a premature truncation of the protein deleting 11 out of 13 transmembrane domains leaving the first two transmembrane domains intact. NPC1(−/−) mice homozygous for the recessive NIH allele of the Niemann Pick type C1 gene (Npc1 ml N) show a dual deficiency of sphingomyelinase and glucocerebrosidase activity (JAX #003092). Animals were bred on a BALB/c OlaHsd background.
(§1) 24 NPC1 (−/−) mice (groups D to I) were treated per oral gavage (10 mL/kg) with AZ-3102-00 from post-natal day 11 (P11) to post-natal-day 70 (P70). Dosing will start at 1.5 mg/kg from P11 to P25, followed by 3 mg/kg from P26 to P70. Control mice included 6 NPC1 (−/−) and 4 NPC (+/−) mice treated with vehicle and 4 NPC (+/+) mice received AZ-3102-00 (groups A to C).
Definitions of Clinical Scores and Humane Endpoints Clinical Signs were monitored on a daily basis starting at P45 until the end of the study (according to the template shown in FIG. 18). The parameters “weight loss”, “general health”, “clinical findings” and “line specific findings” were recorded and rated according to a score scale. The sum of this score was used for evaluation.
Pink (=light grey) bars represent the appearance and duration of a high level of tremor (sore of 5); whereas the green (=dark grey) bars represent the appearance and duration of a slight or moderate tremor. […] Possible tremor scores: 0: no tremor1: Slight incoordination, slight-moderate tremor; 5: High level of Tremor, uncoordinated movement; 10: Reduced righting reflex (no animal achieved this score).

[2] = molecular target: T1, glucosylceramide synthase (GCS) (Homo sapiens, UniProt Q16739); settings: stated in words only, no test described; cited from earlier work
T1 sequence (Q16739 1-394): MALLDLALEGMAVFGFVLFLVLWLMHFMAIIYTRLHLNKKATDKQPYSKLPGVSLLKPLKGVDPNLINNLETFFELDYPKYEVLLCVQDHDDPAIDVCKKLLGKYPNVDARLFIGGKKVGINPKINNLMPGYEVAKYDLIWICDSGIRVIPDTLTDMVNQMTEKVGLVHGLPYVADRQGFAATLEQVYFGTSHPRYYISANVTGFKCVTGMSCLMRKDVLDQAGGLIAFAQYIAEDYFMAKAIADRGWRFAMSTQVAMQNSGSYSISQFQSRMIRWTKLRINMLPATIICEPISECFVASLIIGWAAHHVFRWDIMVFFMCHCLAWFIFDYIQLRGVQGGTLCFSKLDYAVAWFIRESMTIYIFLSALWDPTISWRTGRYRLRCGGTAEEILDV

[3] = Dynamic vapour sorption (DVS), hygroscopicity; format: physicochemical; settings: listed as Form 3
Experimental: Dynamic vapour sorption (DVS) measurements were performed with an SPS11-100n “Sorptions Prüfsystem” from ProUmid (formerly “Projekt Messtechnik”), August-Nagel-Str. 23, 89079 Ulm (Germany). About 5 mg to 20 mg of sample was put into an aluminum sample pan. Humidity change rates of 5% per hour were used. The applied measurement program can be described as follows:
The sample was placed on an aluminium or platinum holder on top of a microbalance and allowed to equilibrate at a relative humidity (RH) of 50% before starting the pre-defined humidity programs: • (1) 2 h at 50% RH • (2) 50→0% RH (5%/h); 5 h at 0% RH • (3) 0→95% RH (5%/h); 5 h at 95% RH • (4) 95→0% RH (5%/h); 5 h at 0% RH • (5) 0→95% RH (5%/h); 5 h at 95% RH • (6) 95→50% RH (5%/h); 2 h at 50% RH

[4] = system: Hexb (−/−) mice; experiment: Clinical signs in mice suffering from Sandhoff disease; format: in vivo; settings: initial data
Experimental: Mice suffering from Sandhoff disease were administered a therapeutically effective amount of AZ-3102.

[5] = system: glucosylceramide C16:0 and C18:0; experiment: Glucosylceramide levels in brain homogenate of NPC mice (HPLC-MS/MS); format: in vivo
Experimental: as §1
Brain tissues were homogenized in a solution of ultrapure water:methanol (1:1) with 0.1% formic acid (4 mL for each gram of tissue) using a FastPrep 24™ Microtube homogenizer. Tissues homogenates were then mixed for protein precipitation with a solution of acetonitrile:ultrapure water:methanol (90:5:5) containing 500 nM of GlcCer C17:0 and 0.1% formic acid. After a 5-min incubation at room temperature, the samples were centrifuged for 5 min (13000 rpm, 20° C.) and 50 μL of the supernatants were transferred into a siliconized MTP 96-well plate.
Concentrations of glucosylceramide C16:0 (GlcCer C16:0), glucosylceramide C18:0 (GlcCer C18:0), and glucosylceramide C24:1 (GlcCer C24:1) brain, samples were quantified by HPLC-MS/MS detection in the multiple-reaction-monitoring mode (MRM). Supernatants were analysed by HPLC-MS/MS while using a HALO HILIC column (150*4.6 mm, 2.7 μm) from Advanced Materials Technology for distinguishing between the galactosyl- and -glucosylceramide isomers. […] Analysis of GlcCer C16:0 and GlcCer C18:0 was performed using a gradient with mobile phase A: 5 mM Ammonium Acetate in 94.5% acetonitrile 2.5% Methanol, 2.5% ultrapure water and 0.5% formic acid and mobile phase B: ultrapure Water and 0.1% formic acid. The LLOQ in brain samples for GlcCer 16:0, GlcCer 18:0 and GlcCer 24:1 was […] tissue, respectively.

[6] = whole brain homogenates, daily oral dosing PND 11-70

Q: Which results are given for `OC[C@H]1[C@@H](O)[C@H](O)[C@@H](O)CN1CCCCCOCc1ccc(-c2ccccc2)c(F)c1` [AZ-3102]?
A: Mice with a high level of tremor (score of 5) ([1]; NPC (−/−) mice treated P11-P70, observed PND 56-70, vehicle group 4 out of 5): 1 out of 24; Initiation, duration and strength of tremor ([1]; NPC (−/−) mice, treated versus vehicle, PND 56-70): diminished; Overall clinical signs ([1]; NPC (−/−) mice, treated versus vehicle): improved clinical signs; Overall clinical signs ([1]; NPC (−/−) mice, treated versus vehicle, listed as Form 3): improve the clinical signs; Potency as inhibitor of GCS [2]: highly potent (nM); Hygroscopicity (description) [3]: non-hygroscopic or substantially non-hygroscopic; also recorded: substantially non-hygroscopic; Clinical signs of diseased animals [4]: improved; Levels of glucosylceramide C16:0 and C18:0 in the brain ([5]; repeat oral administration PND 11-70): increased levels; Increase of GlcCer 16:0 compared to vehicle treated animals [5, 6]: greater than 2 fold; Increase of GlcCer 18:0 compared to vehicle treated animals [5, 6]: approximately 9 fold
